The NIST ThermoML archive (doi:10.1021/je0600808)

Assays:
[1] = 101.33 kPa, Liquid
[2] = xn = mol fraction of the nth substance listed; settings: 101 kPa, Liquid

CCCCCO [pentan-1-ol]
[1]
Settings	mass density [kg/m3]	viscosity [mPa·s]
293.15 K	814.51	4.117
298.15 K	810.73	3.556
303.15 K	806.77	3.06
313.15 K	799.05	2.332
323.15 K	789.81	1.822
333.15 K	781.81	1.44
343.15 K	772.84	1.146
353.15 K	764.79	0.931
363.15 K	757.17	0.767

CCOC(=O)OCC [diethyl carbonate] + CCCCCO
[2]
Settings	mass density, x1 = 0.1016 [kg/m3]	mass density, x1 = 0.2056 [kg/m3]	mass density, x1 = 0.2991 [kg/m3]	viscosity, x1 = 0.1016 [mPa·s]	viscosity, x1 = 0.2056 [mPa·s]	viscosity, x1 = 0.2991 [mPa·s]
293.15 K	831.8	849.16	864.58	2.879	2.155	1.735
298.15 K	827.59	844.75	859.91	2.522	1.907	1.549
303.15 K	823.06	840.03	854.97	2.206	1.69	1.386
313.15 K	814.72	831.26	845.78	1.723	1.351	1.132
323.15 K	805.16	821.48	835.87	1.383	1.109	0.939
333.15 K	796.72	812.44	826.67	1.122	0.918	0.79
343.15 K	787.31	802.62	816.48	0.919	0.766	0.67
353.15 K	778.85	793.74	807.26	0.764	0.65	0.576
363.15 K	770.78	785.19	798.3	0.644	0.557	0.501

CCOC(=O)OCC [diethyl carbonate]
[1]
Settings	mass density [kg/m3]	viscosity [mPa·s]
293.15 K	975	0.8
298.15 K	968.97	0.746
303.15 K	962.39	0.695
313.15 K	952.32	0.61
323.15 K	939.78	0.541
333.15 K	928.69	0.483
343.15 K	916.33	0.435
353.15 K	905.02	0.393
363.15 K	893.71	0.358

CCCCO [butan-1-ol]
[1]
Settings	mass density [kg/m3]	viscosity [mPa·s]
293.15 K	809.82	2.963
298.15 K	806.06	2.619
303.15 K	802.03	2.298
313.15 K	793.29	1.786
323.15 K	786.55	1.421
333.15 K	777.81	1.137
343.15 K	767.03	0.92
353.15 K	757.52	0.759
363.15 K	749.38	0.63

CCOC(=O)OCC [diethyl carbonate] + CCCO
[2]
Settings	mass density, x1 = 0.0993 [kg/m3]	mass density, x1 = 0.2003 [kg/m3]	mass density, x1 = 0.3011 [kg/m3]	viscosity, x1 = 0.0993 [mPa·s]	viscosity, x1 = 0.2003 [mPa·s]	viscosity, x1 = 0.3011 [mPa·s]
293.15 K	829.06	852	872.49	1.668	1.347	1.147
298.15 K	824.24	846.98	867.35	1.49	1.211	1.037
303.15 K	819.57	841.86	861.83	1.328	1.089	0.938
313.15 K	810.34	832.49	852.34	1.073	0.896	0.783
323.15 K	798.04	819.74	839.43	0.887	0.751	0.666
333.15 K	790.59	811.83	831	0.739	0.636	0.572
343.15 K	778.86	799.8	818.79	0.618	0.542	0.493
353.15 K	770.55	790.85	809.27	0.524	0.466	0.43
363.15 K	761.19	780.98	799	0.448	0.405	0.378

CCCO [propan-1-ol]
[1]
Settings	mass density [kg/m3]	viscosity [mPa·s]
293.15 K	803.62	2.238
298.15 K	799.41	1.981
303.15 K	795.27	1.745
313.15 K	786.62	1.381
323.15 K	773.91	1.115
333.15 K	767.31	0.907
343.15 K	755.95	0.742
353.15 K	748.41	0.615
363.15 K	739.7	0.515

CCOC(=O)OCC [diethyl carbonate] + CCCCO
[2]
Settings	mass density, x1 = 0.1016 [kg/m3]	mass density, x1 = 0.2023 [kg/m3]	mass density, x1 = 0.2974 [kg/m3]	viscosity, x1 = 0.1016 [mPa·s]	viscosity, x1 = 0.2023 [mPa·s]	viscosity, x1 = 0.2974 [mPa·s]
293.15 K	830.56	849.89	867.23	2.161	1.681	1.38
298.15 K	826.34	845.4	862.6	1.909	1.504	1.254
303.15 K	821.75	840.53	857.48	1.685	1.339	1.13
313.15 K	812.55	831.22	847.88	1.345	1.091	0.932
323.15 K	804.95	822.83	838.91	1.097	0.906	0.785
333.15 K	795.85	813.37	829.07	0.904	0.761	0.668
343.15 K	784.94	802.09	817.6	0.749	0.642	0.572
353.15 K	775.15	792.01	807.21	0.63	0.549	0.496
363.15 K	766.42	782.78	797.61	0.536	0.475	0.434
